For this assay, the target named is T1, Estrogen receptor (Homo sapiens, UniProt P03372).
T1 sequence (P03372 whole entry): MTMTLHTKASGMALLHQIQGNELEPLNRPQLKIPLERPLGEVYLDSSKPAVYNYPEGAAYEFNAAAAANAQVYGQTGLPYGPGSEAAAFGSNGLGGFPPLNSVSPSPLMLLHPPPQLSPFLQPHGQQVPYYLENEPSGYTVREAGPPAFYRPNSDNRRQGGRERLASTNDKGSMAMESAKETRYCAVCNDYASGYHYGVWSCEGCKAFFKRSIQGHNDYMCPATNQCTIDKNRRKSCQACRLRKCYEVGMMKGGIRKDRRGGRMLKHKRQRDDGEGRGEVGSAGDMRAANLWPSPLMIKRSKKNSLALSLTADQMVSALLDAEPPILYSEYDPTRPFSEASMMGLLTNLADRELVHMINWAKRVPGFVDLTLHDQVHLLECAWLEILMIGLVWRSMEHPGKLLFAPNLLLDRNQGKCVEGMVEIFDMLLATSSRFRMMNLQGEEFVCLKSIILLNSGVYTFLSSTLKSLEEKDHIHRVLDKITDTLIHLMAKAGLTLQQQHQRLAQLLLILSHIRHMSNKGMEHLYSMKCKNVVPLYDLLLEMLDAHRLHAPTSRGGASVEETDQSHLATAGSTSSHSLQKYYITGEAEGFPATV

In ChEMBL document CHEMBL1139896, “Synthesis, characterization, and estrogen receptor binding affinity of flavone-, indole-, and furan-estradiol conjugates” (Bioorg Med Chem Lett, 2007) one finds Ki data, which are given here for 8 compounds.

Description: Binding affinity to ERalpha

As to `Cc1ccc(S(=O)(=O)Oc2ccc3c(C#CCCCCC#C[C@]4(O)CC[C@H]5[C@@H]6CCc7cc(O)ccc7[C@H]6CC[C@@]54C)c(-c4ccc(OCc5ccccc5)cc4)oc3c2)cc1`, the Ki was determined as 17900 nM.
The same measure for `C[C@]12CC[C@@H]3c4ccc(O)cc4CC[C@H]3[C@@H]1CC[C@@]2(O)C#Cc1cccc2c(=O)cc(-c3ccccc3)oc12`: 100 nM.
The same measure for `C[C@]12CC[C@@H]3c4ccc(O)cc4CC[C@H]3[C@@H]1CC[C@@]2(O)C#CCCCCC#Cc1c(-c2ccccc2)oc2ccccc2c1=O`: 63100 nM; for `C[C@]12CC[C@@H]3c4ccc(O)cc4CC[C@H]3[C@@H]1CC[C@@]2(O)C#Cc1c(-c2ccccc2O)[nH]c2ccccc12`: 75 nM.
The value for `C[C@]12CC[C@@H]3c4ccc(O)cc4CC[C@H]3[C@@H]1CC[C@@]2(O)C#CCCCCC#Cc1cccc2c(=O)cc(-c3ccccc3)oc12` was 382 nM.
`Cc1ccc(S(=O)(=O)Oc2ccc3c(C#C[C@]4(O)CC[C@H]5[C@@H]6CCc7cc(O)ccc7[C@H]6CC[C@@]54C)c(-c4ccc(OCc5ccccc5)cc4)oc3c2)cc1` came in with a Ki of 332 nM.
The value for `C[C@]12CC[C@@H]3c4ccc(O)cc4CC[C@H]3[C@@H]1CC[C@@]2(O)C#Cc1c(-c2ccccc2)oc2ccccc2c1=O` was 37 nM; that for `COc1ccccc1-c1[nH]c2ccccc2c1C#C[C@]1(O)CC[C@H]2[C@@H]3CCc4cc(O)ccc4[C@H]3CC[C@@]21C` was 35 nM.
